Laboratory results: patent US9708314B2, “Heterocyclic amide compound” (NISSAN CHEMICAL INDUSTRIES, LTD., priority 2013, dated 2017)

Key:
Type in all cases: in vivo
Veronica persica = experiment: Test Example 4: herbicidal effect by application to foliage (diluvial soil, plastic box); details: application to foliage, 320 g/ha
How it was run: (§1)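 Plants were grown in sterilized diluvial soil in a greenhouse at 25-30° C for 14 days, then sprayed on stems and leaves with water-diluted emulsion formulation at set rates in g/ha. Weed control and crop injury were scored 3 weeks after treatment on a 0-5 herbicidal-ratio scale, from 0 (≤5%) to 5 (≥90%).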

Chenopodium album = experiment: as above; details: application to foliage, 320 g/ha
How it was run: as §1

Lolium multiflorum Lam. = experiment: as above; details: application to foliage, 320 g/ha
How it was run: as §1

Setaria viridis = experiment: as above; details: application to foliage, 320 g/ha
How it was run: as §1

[1] = system: Echinochloa crus-galli var. crus-galli; experiment: as above; details: application to foliage, 320 g/ha
How it was run: as §1

Avena fatua = experiment: as above; details: application to foliage, 320 g/ha
How it was run: as §1

Amaranthus retroflexus = experiment: as above; details: application to foliage, 320 g/ha
How it was run: as §1

Alopecurus myosuroides = experiment: as above; details: application to foliage, 320 g/ha
How it was run: as §1

Abutilon theophrasti = experiment: as above; details: application to foliage, 320 g/ha
How it was run: as §1

Digitaria ciliaris = experiment: as above; details: application to foliage, 320 g/ha
How it was run: as §1

Stellaria media = experiment: as above; details: application to foliage, 320 g/ha
How it was run: as §1

Galium spurium = experiment: as above; details: application to foliage, 320 g/ha
How it was run: as §1

Apera spica-venti. = experiment: as above; details: application to foliage, 320 g/ha
How it was run: as §1

[2] = system: directly sowed Oryza sativa; experiment: Test Example 3: effect on crop by application to foliage (Wagner pot, water depth 0.1-0.5 cm); details: Nineteenth Table; application to foliage; application herbicide amount 320 g/ha
How it was run: (§2)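 Greenhouse pot test, 25–30 °C, alluvial soil. Sown seedlings grown 14 days then sprayed on leaves and stems with emulsion diluted to target g/ha. Rating at 3 weeks, 0–5 scale (0 ≤5%, 5 ≥90%).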

[3] = system: Echinochloa crus-galli var. crus-galli; experiment: Test Example 3: herbicidal effect by application to foliage (Wagner pot, water depth 0.1-0.5 cm); details: Nineteenth Table; application to foliage; application herbicide amount 320 g/ha
How it was run: as §2

Leptochloa chinensis = experiment: as above; details: Nineteenth Table; application to foliage; application herbicide amount 320 g/ha
How it was run: as §2

Cyperus difformis = experiment: as above; details: Nineteenth Table; application to foliage; application herbicide amount 320 g/ha
How it was run: as §2

SMILES	herbicidal effect, R (Veronica persica) (Veronica persica)	herbicidal effect, O (Chenopodium album) (Chenopodium album)	herbicidal effect, K (Lolium multiflorum Lam.) (Lolium multiflorum Lam.)	herbicidal effect, G (Setaria viridis) (Setaria viridis)	herbicidal effect, H (Echinochloa crus-galli var. crus-galli) [1]	herbicidal effect, I (Avena fatua) (Avena fatua)	herbicidal effect, N (Amaranthus retroflexus) (Amaranthus retroflexus)	herbicidal effect, J (Alopecurus myosuroides) (Alopecurus myosuroides)	herbicidal effect, M (Abutilon theophrasti) (Abutilon theophrasti)	herbicidal effect, F (Digitaria ciliaris) (Digitaria ciliaris)	herbicidal effect, P (Stellaria media) (Stellaria media)	herbicidal effect, Q (Galium spurium) (Galium spurium)	herbicidal effect, L (Apera spica-venti.) (Apera spica-venti.)	b (effect on crop grade) [2]	H (herbicidal effect grade) [3]	D (herbicidal effect grade) (Leptochloa chinensis)	E (herbicidal effect grade) (Cyperus difformis)
CN(c1nnc2c(C(=O)Nc3nnnn3C)ccc(C(F)(F)F)n12)C1CCCCC1 [2-083]	4 (Herbicidal ratio of 70% or more and less than 90%)	5 (Herbicidal ratio of 90% or more (almost completely withered))	1 (Herbicidal ratio of 5% or more and less than 20%)	4 (Herbicidal ratio of 70% or more and less than 90%)	5 (Herbicidal ratio of 90% or more (almost completely withered))	2 (Herbicidal ratio of 20% or more and less than 40%)	5 (Herbicidal ratio of 90% or more (almost completely withered))	1 (Herbicidal ratio of 5% or more and less than 20%)	5 (Herbicidal ratio of 90% or more (almost completely withered))	5 (Herbicidal ratio of 90% or more (almost completely withered))	4 (Herbicidal ratio of 70% or more and less than 90%)	3 (Herbicidal ratio of 40% or more and less than 70%)	1 (Herbicidal ratio of 5% or more and less than 20%)	0 (Herbicidal ratio of 5% or less (almost no effect))	4 (Herbicidal ratio of 70% or more and less than 90%)	4 (Herbicidal ratio of 70% or more and less than 90%)	5 (Herbicidal ratio of 90% or more (almost completely withered))
Cn1nnnc1NC(=O)c1ccc(C(F)(F)F)n2c(SCC3CC3)nnc12 [2-084]	3 (Herbicidal ratio of 40% or more and less than 70%)	5 (Herbicidal ratio of 90% or more (almost completely withered))	3 (Herbicidal ratio of 40% or more and less than 70%)	5 (Herbicidal ratio of 90% or more (almost completely withered))	5 (Herbicidal ratio of 90% or more (almost completely withered))	4 (Herbicidal ratio of 70% or more and less than 90%)	5 (Herbicidal ratio of 90% or more (almost completely withered))	3 (Herbicidal ratio of 40% or more and less than 70%)	5 (Herbicidal ratio of 90% or more (almost completely withered))	5 (Herbicidal ratio of 90% or more (almost completely withered))	5 (Herbicidal ratio of 90% or more (almost completely withered))	4 (Herbicidal ratio of 70% or more and less than 90%)	4 (Herbicidal ratio of 70% or more and less than 90%)	5 (Herbicidal ratio of 90% or more (almost completely withered))	5 (Herbicidal ratio of 90% or more (almost completely withered))	5 (Herbicidal ratio of 90% or more (almost completely withered))	5 (Herbicidal ratio of 90% or more (almost completely withered))
Cn1nnnc1NC(=O)c1ccc(C(F)(F)F)n2c(SCC3CCCO3)nnc12 (stereo not shown) [2-085]	4 (Herbicidal ratio of 70% or more and less than 90%)	5 (Herbicidal ratio of 90% or more (almost completely withered))	3 (Herbicidal ratio of 40% or more and less than 70%)	5 (Herbicidal ratio of 90% or more (almost completely withered))	5 (Herbicidal ratio of 90% or more (almost completely withered))	4 (Herbicidal ratio of 70% or more and less than 90%)	5 (Herbicidal ratio of 90% or more (almost completely withered))	3 (Herbicidal ratio of 40% or more and less than 70%)	5 (Herbicidal ratio of 90% or more (almost completely withered))	5 (Herbicidal ratio of 90% or more (almost completely withered))	5 (Herbicidal ratio of 90% or more (almost completely withered))	4 (Herbicidal ratio of 70% or more and less than 90%)	4 (Herbicidal ratio of 70% or more and less than 90%)	4 (Herbicidal ratio of 70% or more and less than 90%)	5 (Herbicidal ratio of 90% or more (almost completely withered))	5 (Herbicidal ratio of 90% or more (almost completely withered))	4 (Herbicidal ratio of 70% or more and less than 90%)
Cn1nnnc1NC(=O)c1ccc(C(F)(F)F)n2c(SCC#N)nnc12 [2-086]	5 (Herbicidal ratio of 90% or more (almost completely withered))	5 (Herbicidal ratio of 90% or more (almost completely withered))	2 (Herbicidal ratio of 20% or more and less than 40%)	5 (Herbicidal ratio of 90% or more (almost completely withered))	5 (Herbicidal ratio of 90% or more (almost completely withered))	3 (Herbicidal ratio of 40% or more and less than 70%)	5 (Herbicidal ratio of 90% or more (almost completely withered))	1 (Herbicidal ratio of 5% or more and less than 20%)	5 (Herbicidal ratio of 90% or more (almost completely withered))	5 (Herbicidal ratio of 90% or more (almost completely withered))	4 (Herbicidal ratio of 70% or more and less than 90%)	4 (Herbicidal ratio of 70% or more and less than 90%)	4 (Herbicidal ratio of 70% or more and less than 90%)	3 (Herbicidal ratio of 40% or more and less than 70%)	5 (Herbicidal ratio of 90% or more (almost completely withered))	5 (Herbicidal ratio of 90% or more (almost completely withered))	4 (Herbicidal ratio of 70% or more and less than 90%)
CCN(CC)c1nnc2c(C(=O)Nc3nnnn3C)ccc(C(F)(F)F)n12 [2-089]	5 (Herbicidal ratio of 90% or more (almost completely withered))	5 (Herbicidal ratio of 90% or more (almost completely withered))	1 (Herbicidal ratio of 5% or more and less than 20%)	4 (Herbicidal ratio of 70% or more and less than 90%)	4 (Herbicidal ratio of 70% or more and less than 90%)	1 (Herbicidal ratio of 5% or more and less than 20%)	4 (Herbicidal ratio of 70% or more and less than 90%)	2 (Herbicidal ratio of 20% or more and less than 40%)	4 (Herbicidal ratio of 70% or more and less than 90%)	4 (Herbicidal ratio of 70% or more and less than 90%)	5 (Herbicidal ratio of 90% or more (almost completely withered))	3 (Herbicidal ratio of 40% or more and less than 70%)	4 (Herbicidal ratio of 70% or more and less than 90%)	2 (Herbicidal ratio of 20% or more and less than 40%)	4 (Herbicidal ratio of 70% or more and less than 90%)	5 (Herbicidal ratio of 90% or more (almost completely withered))	4 (Herbicidal ratio of 70% or more and less than 90%)
